Where a name gives a salt, the structure may show the parent alone.
Tested on: body temperature
Experiment: Hypothermia Test (effect on body temperature)
Format: in vivo, CF-1 male mice
Conditions: either test: hypothermic or apomorphine antagonism
Method: The Effect on Body Temperature (Hypothermia) Test and the Antagonism of Apomorphone-Induced Case Climbing (ACC), (Apomorphine Gnawing Test) are described on page 1398 of the publication, Journal of Medicinal Chemistry, Vol. 22, No. 11, pp. 1390-1398, in an article entitled "6-Aryl-4H-s-triazolo[4,3-a][1,4]benzodiazepines....Action" by J. B. Hester, Jr., et al.
For the tests here, the Hypothermia Test procedure was run as follows:
A group of four CF-1 male mice (18-22 g each) was injected intraperitoneally with the test compound prepared in 0.25 percent w/v methylcellulose in water solution. After 45 min, abdominal temperature of each mouse was measured using a thermister probe. A control group of four mice was treated with vehicle only and the temperature of the control group was taken in a similar manner. A compound was considered to have a significant effect on body temperature if the mean temperature in the test compound treated group deviated more than 3.5°C from the mean temperature of the parallel control group. Stimulants tend to elevate temperatures; depressants tend to lower body temperature.

## CCCN(CCC)C1Cc2cccc3cc(O)cc(c23)C1 (single isomer, unassigned; (-)) [(34), (-)-2-(N,N-di-n-propylamino)-2,3-dihydro-lH-phenalen-5-ol hydrobromide]
  active in either the hypothermic or the apomorphine antogonism test: active

## Brc1ccc2c3c(cccc13)CC(N1CCCCC1)C2 (stereo not shown) [(29), 1-[6-bromo-2,3-dihydro-1H-phenalen-2-yl]piperadine]
  active in either the hypothermic or the apomorphine antogonism test: active

## CCCN(CCC)C1Cc2cccc3c(Br)ccc(c23)C1 (stereo not shown) [(4)]
  active in either the hypothermic or the apomorphine antogonism test: active

## CN(C)C1Cc2cccc3c(O)ccc(c23)C1 (stereo not shown) [(3), 2-(N,N-dimethylamino-2,3-dihydro-lH-phenalen-6-ol hydrochloride]
  active in either the hypothermic or the apomorphine antogonism test: active

## CCNC1Cc2cccc3cccc(c23)C1 [(57), N-ethyl-2,3-dihydro-lH-phenalen-2-amine hydrochloride]
  active in either the hypothermic or the apomorphine antogonism test: active

## CN(C)C1Cc2cccc3cccc(c23)C1 [(7), N,N-dimethyl-2,3-dihydro-lH-phenalen-2-amine hydrochloride]
  active in either the hypothermic or the apomorphine antogonism test: active

## N-methyl-6-(2-methyl-l,3-dioxan-2-yl)-2,3-dihydro-lH-phena- len-2-amine maleate salt [(6)]
  active in either the hypothermic or the apomorphine antogonism test: active

## CCCN(CCC)C1Cc2cccc3cc(OCc4ccccc4)cc(c23)C1 (stereo not shown) [(18), [2-(N,N-di-n-propylamino)-2,3-dihydro-lH-phenalen-5-yl]-a-benzyl ether]
  active in either the hypothermic or the apomorphine antogonism test: active

## CCCCCCC(=O)Oc1cc2c3c(cccc3c1)CC(N(CCC)CCC)C2 (stereo not shown) [(46), [2-(N,N-di-n-propylamino)-2,3-dihydro-1H-phenalen-5-yl]heptanoate ester hydrochloride]
  active in either the hypothermic or the apomorphine antogonism test: active

## CCCN(CCC)C1Cc2cccc3cccc(c23)C1 [(53), N,N-di-n-propyl-2,3-dihydro-lH-phenalen-2-amine hydrochloride]
  active in either the hypothermic or the apomorphine antogonism test: active

## NC1Cc2cccc3c(Br)ccc(c23)C1 (stereo not shown) [(27), 6-bromo-2,3-dihydro-lH-phenalen-2-ylamine hydrochloride]
  active in either the hypothermic or the apomorphine antogonism test: active

## CNC1Cc2cccc3c(C(=O)c4ccccc4)ccc(c23)C1 (stereo not shown) [(20), [2-(N-methylamino)-2,3-dihydro-lH-phenalen-6-yl]phenone methanesulfonate salt]
  active in either the hypothermic or the apomorphine antogonism test: active

## CCCN(CCC)C1Cc2cccc3cc(OC(C)=O)cc(c23)C1 (stereo not shown) [(37), [2-(N,N-di-n-propylamino)-2,3-dihydro-lH-phenalen-5-yl]acetate ester]
  active in either the hypothermic or the apomorphine antogonism test: active

## CCN(CC)C1Cc2cccc3cccc(c23)C1 [(55), N,N-diethyl-2,3-dihydro-lH-phenalen-2-amine hydrochloride, 0.25 H2O hydrate]
  active in either the hypothermic or the apomorphine antogonism test: active

## Brc1ccc2c3c(cccc13)CC(N1CCC1)C2 (stereo not shown) [(12), 1-[6-bromo-2,3-dihydro-1H-phenalen-2-yl]azetidine]
  active in either the hypothermic or the apomorphine antogonism test: active

## CCCN(CCC)C1Cc2cccc3c(O)ccc(c23)C1 (stereo not shown) [(9), 2-(N,N-di-n-propylamino)-2,3-dihydro-lH-phenalen-6-ol hydrochloride]
  active in either the hypothermic or the apomorphine antogonism test: active

## CCCN(CCC)C1Cc2cccc3cc(OC(=O)C(C)(C)C)cc(c23)C1 (stereo not shown) [(44), 2-(N,N-di-n-propylamino)-2,3-dihydro-lH-phenalen-5-ol, 2,2-dimethylpropyl ester hydrochloride]
  active in either the hypothermic or the apomorphine antogonism test: active

## CCCNC1Cc2cccc3cccc(c23)C1 [(56), N-n-propyl-2,3-dihydro-lH-phenalen-2-amine hydrochloride]
  active in either the hypothermic or the apomorphine antogonism test: active

## N-methyl-6-(2-methyl-l,3-dioxan-2-yl)-2,3-dihydro-lH-phena- len-2-amine [(5)]
  active in either the hypothermic or the apomorphine antogonism test: active

— EP0234113A1, “2,3-Dihydro-1H-phenalene-2-amino compounds as anti-psychotic drugs” (THE UPJOHN COMPANY, priority 1985, dated 1987)
